In publication PMC8779255, “Determining the Anticancer Activity of Sphingosine Kinase Inhibitors Containing Heteroatoms in Their Tail Structure” (Pharmaceutics, 2022):

Legend:
S1P in HCT116 cells = assay: S1P ELISA of cell lysate; format: cell-based, human
Method: The cellular levels of S1P, sphingosine, and ceramide were detected using an ELISA assay kit (MyBioSource, Inc., San Diego, CA, USA) according to the manufacturer’s instruction. For S1P ELISA, 100 µL cell lysates or standards were added in pre-coated ELISA wells, incubated for 90 min at 37 °C, and treated with 1x biotinylated anti S1P antibody for 1 h. Following treatment of HRP conjugated secondary antibody, the substrate was added and allowed to change the color for 15 min; then, the stop solution was added and absorbance was measured at 450 nm using a Multiskan GO (Thermo Scientific, Waltham, MA, USA) microplate spectrophotometer. […] A stop solution (50 µL) was added to each well, and optical density was measured at 450 nm using a microplate reader. […] After incubation, 50 µL substrate A and B was added to the plate and incubated at 37 °C for 20 min; a stop solution (50 µL) was added to each well and optical density was determined at 450 nm using a microplate reader. The concentration of S1P, sphingosine, and ceramide were calculated as ng/mL using respective standard curves constructed by Skanlt microplate reader software 5.0 (Thermo Scientific, Waltham, MA, USA).

CYP2C19 = CYP2C19 (Homo sapiens, UniProt P33261); assay: Inhibition of CYP enzymes activity, human liver microsomes; settings: human liver microsomes 0.25 mg/mL, 10 μM, S-mephenytoin substrate
Method: By simultaneously analyzing metabolites, the ability of the six compounds to inhibit drug metabolism enzymes was evaluated.
(§2) Metabolites of each CYP coenzyme indicator drug generated through the above reaction were analyzed using the Shimadzu Nexera XR system and TSQ vantage (Thermo). The HPLC column was a Kinetex C18 column (2.1 × 100 mm^2, 2.6 μm particle size; Phenomenex, Torrance, CA, USA), and the mobile phase was distilled water (A) containing 0.1% formic acid and acetonitrile (B) containing 0.1% formic acid. […] The generated metabolites were quantified using MRM (Multiple Reaction Monitoring) quantification modes, and data were analyzed using Xcalibur (version 1.6.1).

[1] = tested on: PARP, caspase-3, Bcl-2, BAX in HCT116 cells; assay: Western blotting of apoptotic pathway-related proteins; format: cell-based, human
Method: The cell lysate was prepared after successive treatment using mammalian protein extraction buffer (Organic buffer + 10 mM NaCl + detergent pH 7.5) mixed with 1% protease/phosphatase inhibitor cocktail; protein was quantified with BCA assay, boiled at 95 °C for 10 min by adding sample loading buffer, separated using SDS-PAGE, and transferred into methanol-activated PVDF membrane. Primary antibodies were probed overnight in PVDF membrane at 4 °C and […] with subsequent HRP anti-mouse and anti-rabbit secondary antibodies at room temperature. Then, membranes were washed with TBST buffer, and images were detected by Amersham Imager 680 (GE Healthcare; Leiden, WZ, The Netherlands) using ECL solution. Band intensities were analyzed and quantified using Image J software (version 1.53i).

CYP1A2 = target: T1, CYP1A2 (Homo sapiens, UniProt P05177); assay: Inhibition of CYP enzymes activity, human liver microsomes; settings: human liver microsomes 0.25 mg/mL, 10 μM, phenacetin substrate
T1 sequence (P05177 1-516): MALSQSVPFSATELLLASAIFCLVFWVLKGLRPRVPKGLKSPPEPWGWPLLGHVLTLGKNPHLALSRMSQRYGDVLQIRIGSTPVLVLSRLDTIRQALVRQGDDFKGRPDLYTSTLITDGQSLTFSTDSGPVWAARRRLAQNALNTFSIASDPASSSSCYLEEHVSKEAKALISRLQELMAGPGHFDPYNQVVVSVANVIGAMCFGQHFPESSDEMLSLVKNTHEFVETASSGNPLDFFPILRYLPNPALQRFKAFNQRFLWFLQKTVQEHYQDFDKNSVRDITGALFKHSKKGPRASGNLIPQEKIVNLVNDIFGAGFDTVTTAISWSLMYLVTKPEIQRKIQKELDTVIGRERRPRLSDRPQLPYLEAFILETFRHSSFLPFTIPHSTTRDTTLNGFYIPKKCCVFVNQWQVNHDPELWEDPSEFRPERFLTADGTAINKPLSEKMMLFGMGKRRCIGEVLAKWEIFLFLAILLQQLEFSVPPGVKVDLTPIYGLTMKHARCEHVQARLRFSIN
Method: Afterward, to terminate the reaction, an acetonitrile solution containing an internal standard (terfenadine) was added, centrifuged for 5 min (14,000 rpm, 4 °C), and the supernatant was injected into the LC-MS/MS system. By simultaneously analyzing metabolites, the ability of the six compounds to inhibit drug metabolism enzymes was evaluated.
as §2

HT29 cells = assay: Clonogenic (colony formation) assay; format: cell-based, human; settings: HT29, 5, 10 and 20 μM
Method: (§1) Cell proliferation was assayed by in vitro clonogenic assay. To perform the clonogenic assay, HT29 and HCT116 cells (1000 cells/well) were grown in 6-well plates for 24 h. Cells were treated with compound 10 and FTY720 in different concentrations for 12 h and changed fresh medium. Colonies were allowed to grow for two weeks by changing to a fresh medium every 3 days. Colonies were stained with 0.1% crystal violet prepared in 25% […] for 30 min and washed with running water and photographed with Canon Rebel T6i (Tokyo, Kanto, Japan). Colonies were counted using Image J software version 1.53i, National Institutes of Health, Bethesda, MD, USA). Plating efficiency (PE) and surviving fraction (SF) was calculated using the following formula. (1) [Plating efficiency (PE)]=Number of colony count in control/Number of cell seeded [Surviving Fraction]=Number of colony count /Number of cell seeded […]

HCT116 cells = assay: Clonogenic (colony formation) assay; format: cell-based, human; settings: HCT116, 5, 10 and 20 μM
Method: as §1

SK1 enzyme = target: T2, SK1 enzyme (Homo sapiens, UniProt Q9NYA1); assay: SK activity assay (Adapta screening system); format: biochemical; settings: final concentration of 20 μM
T2 construct: purchased Thermo Fisher Scientific
Method: The effect of compounds in sphingosine kinase activity was examined using the […] screening system (Thermo Fisher Scientific System, Waltham, MA, USA). The kinase inhibition ability of compounds 1-11 along with RB005 was measured with final concentration of 20 μM. […] The data were presented as percentage inhibition of SK enzyme by individual compounds.

PP2A in HCT116 cells = target: T3, PP2A in HCT116 cells (Homo sapiens, UniProt P67775); assay: PP2A activity assay (immunoprecipitation kit); format: cell-based; settings: HCT116, 24 h, 20 µM of compounds 10, 11 and 13; vs nontreated control cells
T3 construct: endogenous in cells; host or cells: HCT116
Method: The activity of PP2A was measured by using the PP2A kit according to the manufacturer’s instruction. The cell lysate was incubated with anti PP2A, C subunit antibody, and protein A agarose slurry for 2 h at 4 °C. The phosphopeptide solution (60 µL) was mixed and incubated at 30 °C for 10 min in a shaker. After a brief centrifuge, a 25 µL sample was liquated in ½ volume microplate and 100 µL malachite green phosphate detection working solution was added. After color development, absorbance was taken at 650 nm in a Multiskan GO microplate reader. A phosphate standard curve was constructed using phosphate standard, and results were calculated using this standard curve. This experiment was repeated three times (n = 6).

T2 sequence (Q9NYA1 whole entry): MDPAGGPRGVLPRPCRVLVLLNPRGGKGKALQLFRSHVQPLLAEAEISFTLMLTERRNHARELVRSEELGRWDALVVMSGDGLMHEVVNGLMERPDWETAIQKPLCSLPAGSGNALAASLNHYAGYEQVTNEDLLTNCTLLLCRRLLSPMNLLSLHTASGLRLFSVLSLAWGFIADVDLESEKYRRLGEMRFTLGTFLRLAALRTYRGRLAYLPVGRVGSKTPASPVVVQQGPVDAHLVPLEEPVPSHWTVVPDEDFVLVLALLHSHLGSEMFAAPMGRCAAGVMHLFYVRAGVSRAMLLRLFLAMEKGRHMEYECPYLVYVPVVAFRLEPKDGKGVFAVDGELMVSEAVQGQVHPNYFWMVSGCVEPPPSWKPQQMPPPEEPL
Sequence of CYP2C19 (P33261 whole entry): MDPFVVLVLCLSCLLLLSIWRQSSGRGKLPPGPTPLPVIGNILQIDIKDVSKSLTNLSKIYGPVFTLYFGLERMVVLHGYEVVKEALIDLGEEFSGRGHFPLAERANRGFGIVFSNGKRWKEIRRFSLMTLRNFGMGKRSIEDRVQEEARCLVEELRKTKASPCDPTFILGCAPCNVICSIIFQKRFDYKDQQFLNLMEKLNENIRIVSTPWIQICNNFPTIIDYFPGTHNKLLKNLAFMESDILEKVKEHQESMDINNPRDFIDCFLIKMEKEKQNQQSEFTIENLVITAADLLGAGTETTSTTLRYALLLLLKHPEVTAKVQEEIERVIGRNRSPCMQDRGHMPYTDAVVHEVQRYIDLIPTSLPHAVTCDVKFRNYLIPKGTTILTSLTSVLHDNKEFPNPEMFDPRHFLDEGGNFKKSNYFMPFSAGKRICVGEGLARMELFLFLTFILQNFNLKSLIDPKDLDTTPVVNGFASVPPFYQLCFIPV
T3 sequence (P67775 whole entry): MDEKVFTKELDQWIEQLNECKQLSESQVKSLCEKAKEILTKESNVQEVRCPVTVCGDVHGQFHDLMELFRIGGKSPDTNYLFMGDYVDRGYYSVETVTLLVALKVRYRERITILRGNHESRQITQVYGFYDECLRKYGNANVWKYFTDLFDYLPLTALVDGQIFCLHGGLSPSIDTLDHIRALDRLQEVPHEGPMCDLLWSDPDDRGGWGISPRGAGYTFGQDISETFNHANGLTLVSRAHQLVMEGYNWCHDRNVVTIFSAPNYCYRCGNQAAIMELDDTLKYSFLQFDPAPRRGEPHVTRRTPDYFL

CYP2C19 activity (% of control activity) (CYP2C19): 96.5% | CYP1A2 activity (% of control activity) (CYP1A2): >100% | inhibition at 20 µM (SK1 enzyme): 20% | PP2A activity increase (PP2A in HCT116 cells): 1.73 fold
SMILES: CCCCCCCOc1ccc(CCN2CCN(CCO)CC2)cc1 [Compound 10, 2-(4-(4-(Heptyloxy)phenethyl)piperazin-1-yl)ethanol]
S1P level decrease (S1P in HCT116 cells): 42% | S1P level (S1P in HCT116 cells; HCT116, 10 and 20 µM, 24 h, vs nontreated control): significantly reduces | expression of antiapoptotic Bcl-2 protein ([1]; HCT116, 10 and 20 µM): decreased the expression of antiapoptotic Bcl-2 protein | expression of proapoptotic protein BAX ([1]; HCT116, 10 and 20 µM): increased the expression of proapoptotic protein BAX | cleavage of caspase-3 ([1]; HCT116, 10 and 20 µM, vs nontreated control): effectively increased the cleavage | cleaved PARP level ([1]; HCT116, vs nontreated groups): increased cleaved PARP level | colony formation capacity (HT29 cells): effectively inhibits the colony formation capacity | colony formation capacity (HCT116 cells): effectively inhibits the colony formation capacity
